Assay results from PubChem BioAssay AID1259411 (Chemical Carcinogenesis Research Information System (CCRIS), 2018).
Calls of active or inactive are those of the source. How the calls were made is not given here.

System: rodent carcinogenicity bioassays, tumor incidence
Assay: CCRIS carcinogenicity studies
Method in brief: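 Archive of carcinogenicity, mutagenicity, tumor promotion and tumor inhibition results drawn from journals, NCI reports and other sources, expert-reviewed; covers 1985-2011 and is no longer updated.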

`CC(C)NC(=O)N1CC(=O)N(c2cc(Cl)cc(Cl)c2)C1=O` was tested, and the carcinogen call (Species: Mouse, Strain/Sex: CD-1/Female (50/Group), Route: Oral, Dose: 0, 160, 800, 4000 ppm of 95.7% iprodione in diet for 99 wk, study duration 99 wk, Dose: 0, 160, 800, 4000 ppm of 95.7% iprodione in diet for 99 wk, study duration 99 wk, Tumor Site: Type of Lesion: Liver: hepatocellular adenoma and carcinoma in high dose mice) was “active; positive”, the carcinogen call (Species: Mouse, Strain/Sex: CD-1/Male (50/Group), Route: Oral, Dose: 0, 160, 800, 4000 ppm of 95.7% iprodione in diet for 99 wk, study duration 99 wk, Dose: 0, 160, 800, 4000 ppm of 95.7% iprodione in diet for 99 wk, study duration 99 wk, Tumor Site: Type of Lesion: Liver: hepatocellular adenoma and carcinoma in high dose mice) was “active; positive” and the carcinogen call (Species: Rat, Strain/Sex: Sprague-Dawley/Female (60/Group), Route: Oral, Dose: 0, 8.4, 16.5, 95 mg/kg/day of 94.5-95.7% iprodione in diet for 104 wk, study duration 104 wk, Dose: 0, 8.4, 16.5, 95 mg/kg/day of 94.5-95.7% iprodione in diet for 104 wk, study duration 104 wk) was “inactive; negative”. For the same compound, the carcinogen call (Species: Rat, Strain/Sex: Sprague-Dawley/Male (60/Group), Route: Oral, Dose: 0, 6.1, 12.4, 69 mg/kg/day of 94.5-95.7% iprodione in diet for 104 wk, study duration 104 wk, Dose: 0, 6.1, 12.4, 69 mg/kg/day of 94.5-95.7% iprodione in diet for 104 wk, study duration 104 wk, Tumor Site: Type of Lesion: Testes: Interstitial cell adenoma (high dose only)) was “active; positive”.
With `CC1=CC(O)=NS(=O)(=O)O1` the carcinogen call (Species: MOUSE, Strain/Sex: SWISS/FEMALE, Route: ORAL, Dose: 0, 3000, 10000, 30000 PPM IN DIET FOR 80 WK (STUDY DURATION: 80 WK), Dose: 0, 3000, 10000, 30000 PPM IN DIET FOR 80 WK (STUDY DURATION: 80 WK)) was “inactive; negative”, the carcinogen call (Species: MOUSE, Strain/Sex: SWISS/MALE, Route: ORAL, Dose: 0, 3000, 10000, 30000 PPM IN DIET FOR 80 WK (STUDY DURATION: 80 WK), Dose: 0, 3000, 10000, 30000 PPM IN DIET FOR 80 WK (STUDY DURATION: 80 WK)) was “inactive; negative” and the carcinogen call (Species: RAT, Strain/Sex: CPB-WK SPF/FEMALE, Route: ORAL, Dose: 0, 3000, 10000, 30000 PPM IN DIET FOR 113 WK (STUDY DURATION: 113 WK), Dose: 0, 3000, 10000, 30000 PPM IN DIET FOR 113 WK (STUDY DURATION: 113 WK)) was “inactive; negative”. For the same compound, the carcinogen call (Species: RAT, Strain/Sex: CPB-WK SPF/MALE, Route: ORAL, Dose: 0, 3000, 10000, 30000 PPM IN DIET FOR 120 WK (STUDY DURATION: 120 WK), Dose: 0, 3000, 10000, 30000 PPM IN DIET FOR 120 WK (STUDY DURATION: 120 WK)) was “inactive; negative”.
`CCCCN(N=O)C(=O)CCC(=O)OCC` was tested, and the carcinogen call (Species: RAT, Strain/Sex: F344/MALE,FEMALE, Route: SUBCUTANEOUS, Dose: 38 UMOL/KG IN OLIVE OIL 1/WK FOR 10 WK, Tumor Site: Type of Lesion: INJECTION SITE: MALIGNANT FIBROUS HISTIOCYTOMA) was “active; positive”.
With `CCCC(=O)CN(C)N=O` the carcinogen call (Species: RAT, Strain/Sex: WISTAR/MALE, FEMALE, Route: SUBCUTANEOUS, Dose: 0, 75 MG/KG 1/WK FOR 6 WK TO ADULT ANIMALS (STUDY DURATION: LIFETIME), Tumor Site: Type of Lesion: ESOPHAGUS: PAPILLOMA, NASAL CAVITY: PAPILLOMA, SQUAMOUS CARCINOMA OR ADENOMA, SOFT TISSUE (INJECTION SITE): SARCOMA, THY, Tumor Site: Type of Lesion: ESOPHAGUS: PAPILLOMA, NASAL CAVITY: PAPILLOMA, SQUAMOUS CARCINOMA OR ADENOMA, SOFT TISSUE (INJECTION SITE): SARCOMA, THY) was “active; positive” and the carcinogen call (Species: RAT, Strain/Sex: WISTAR/MALE,FEMALE, Route: INTRAPERITONEAL, Dose: 0, 75 MG/KG 1/WK FOR 6 WK BEGINNING AT 52-61 DAYS OF AGE (STUDY DURATION: >35 WK), Tumor Site: Type of Lesion: ESOPHAGUS: PAPILLOMA, NASAL CAVITY: TUMOR, INJECTION SITE: SARCOMA, Tumor Site: Type of Lesion: ESOPHAGUS: PAPILLOMA, NASAL CAVITY: TUMOR, INJECTION SITE: SARCOMA) was “active; positive”.
With `c1ccc2[nH]c(-c3cscn3)nc2c1` the carcinogen call (Species: MOUSE, Strain/Sex: CD-1/FEMALE, Route: ORAL, Dose: 0, 0.031, 0.125, 0.5% IN DIET FOR 78 WK (STUDY DURATION: 78 WK), Dose: 0, 0.031, 0.125, 0.5% IN DIET FOR 78 WK (STUDY DURATION: 78 WK)) was “inactive; negative”, the carcinogen call (Species: MOUSE, Strain/Sex: CD-1/MALE, Route: ORAL, Dose: 0, 0.031, 0.125, 0.5% IN DIET FOR 78 WK (STUDY DURATION: 78 WK), Dose: 0, 0.031, 0.125, 0.5% IN DIET FOR 78 WK (STUDY DURATION: 78 WK)) was “inactive; negative” and the carcinogen call (Species: MOUSE, Strain/Sex: ICR/MALE, Route: ORAL, Dose: 0, 0.8, 1.2, 1.6% IN DIET FOR 44 WK (STUDY DURATION: 44 WK), Dose: 0, 0.8, 1.2, 1.6% IN DIET FOR 44 WK (STUDY DURATION: 44 WK)) was “inactive; negative”. The carcinogen call (Species: RAT, Strain/Sex: F344/FEMALE, Route: ORAL, Dose: 0, 0.05, 0.1, 0.2, 0.4% IN DIET FOR 104 WK (STUDY DURATION: 104 WK), Dose: 0, 0.05, 0.1, 0.2, 0.4% IN DIET FOR 104 WK (STUDY DURATION: 104 WK)) was “inactive; negative” and the carcinogen call (Species: RAT, Strain/Sex: F344/MALE, Route: ORAL, Dose: 0, 0.05, 0.1, 0.2, 0.4% IN DIET FOR 104 WK (STUDY DURATION: 104 WK), Dose: 0, 0.05, 0.1, 0.2, 0.4% IN DIET FOR 104 WK (STUDY DURATION: 104 WK)) was “inactive; negative”.
In the case of `Nc1ccc(O)c([N+](=O)[O-])c1`, the carcinogen call (Species: MOUSE, Strain/Sex: B6C3F1/FEMALE, Route: ORAL, Dose: 0, 1250, 2500 PPM IN DIET FOR 103 WK (STUDY DURATION: 105 WK), Dose: 0, 1250, 2500 PPM IN DIET FOR 103 WK (STUDY DURATION: 105 WK)) was “inactive; negative”, the carcinogen call (Species: MOUSE, Strain/Sex: B6C3F1/MALE, Route: ORAL, Dose: 0, 1250, 2500 PPM IN DIET FOR 103 WK (STUDY DURATION: 105 WK), Dose: 0, 1250, 2500 PPM IN DIET FOR 103 WK (STUDY DURATION: 105 WK)) was “inactive; negative” and the carcinogen call (Species: RAT, Strain/Sex: F344/FEMALE, Route: ORAL, Dose: 0, 1250, 2500 PPM IN DIET FOR 103 WK (STUDY DURATION: 105 WK), Dose: 0, 1250, 2500 PPM IN DIET FOR 103 WK (STUDY DURATION: 105 WK), Tumor Site: Type of Lesion: BLADDER: CARCINOMA) was “equivocal”. For the same compound, the carcinogen call (Species: RAT, Strain/Sex: F344/MALE, Route: ORAL, Dose: 0, 1250, 2500 PPM IN DIET FOR 103 WK (STUDY DURATION: 105 WK), Dose: 0, 1250, 2500 PPM IN DIET FOR 103 WK (STUDY DURATION: 105 WK), Tumor Site: Type of Lesion: URINARY BLADDER: TRANSITIONAL CELL CARCINOMA) was “active; positive”.
For `Cc1ccc(N(CC2=NCCN2)c2cccc(O)c2)cc1`, the carcinogen call (Species: RAT, Strain/Sex: CRL:CD BR/MALE, FEMALE (65/GROUP), Route: ORAL (GAVAGE), Dose: 10, 50, 150 MG/KG DAILY IN DISTILLED WATER (STUDY DURATION: 101 WK), Dose: 10, 50, 150 MG/KG DAILY IN DISTILLED WATER (STUDY DURATION: 101 WK), Tumor Site: Type of Lesion: BROWN ADIPOSE TISSUE: HIBERNOMA) was “active; positive” and the carcinogen call (Species: RAT, Strain/Sex: CRL:CD BR/MALE, FEMALE (65/GROUP), Route: ORAL (GAVAGE), Dose: 10, 50, 150 MG/KG DAILY IN DISTILLED WATER (STUDY DURATION: 101 WK), Dose: 10, 50, 150 MG/KG DAILY IN DISTILLED WATER (STUDY DURATION: 101 WK), Tumor Site: Type of Lesion: PITUITARY: ADENOMA) was “active; positive”.
In the case of `O=C(O)CCCOc1ccc(Cl)cc1Cl`, the carcinogen call (Species: MOUSE, Strain/Sex: ICR/FEMALE, Route: ORAL, Dose: 0, 25, 250, 750 PPM IN DIET FOR 78 WK (STUDY DURATION: 78 WK), Dose: 0, 25, 250, 750 PPM IN DIET FOR 78 WK (STUDY DURATION: 78 WK)) was “inactive; negative”, the carcinogen call (Species: MOUSE, Strain/Sex: ICR/MALE, Route: ORAL, Dose: 0, 25, 250, 750 PPM IN DIET FOR 78 WK (STUDY DURATION: 78 WK), Dose: 0, 25, 250, 750 PPM IN DIET FOR 78 WK (STUDY DURATION: 78 WK)) was “inactive; negative” and the carcinogen call (Species: RAT, Strain/Sex: SPRAGUE-DAWLEY/FEMALE, Route: ORAL, Dose: 0, 60, 600, 1800 PPM IN DIET FOR 104 WK (STUDY DURATION: 104 WK), Dose: 0, 60, 600, 1800 PPM IN DIET FOR 104 WK (STUDY DURATION: 104 WK)) was “inactive; negative”. The carcinogen call (Species: RAT, Strain/Sex: SPRAGUE-DAWLEY/MALE, Route: ORAL, Dose: 0, 60, 600, 1800 PPM IN DIET FOR 104 WK (STUDY DURATION: 104 WK), Dose: 0, 60, 600, 1800 PPM IN DIET FOR 104 WK (STUDY DURATION: 104 WK)) was “inactive; negative”.
